{
  "source": "paper PMC8044163",
  "about": "“Vitamin D and lumisterol derivatives can act on liver X receptors (LXRs)” (Scientific Reports, 2021)",
  "system": "murine dermal fibroblasts",
  "assay": "RNA-Seq of newborn murine dermal fibroblasts",
  "type": "cell-based, mouse",
  "conditions": "10^−7 M, 24 h",
  "description": "All animal studies followed guidelines outlined by the NIH Guide for the Care and Use of Laboratory Animals and protocols were approved by the Institutional Animal Care and Use Committee at the NIEHS or the UAB. […] Skin samples from newborn C57BL/6 mice were collected at the NIEHS. Dermal fibroblasts were isolated from the skin of newborn mice, 1–2 day old. Briefly, we followed the protocols described previously. The skin was washed in PBS, cut into smaller pieces and incubated in 2.4 U/ml of dispase II (Roche) overnight at 4 °C. The dermis was separated from the epidermis and incubated in 0.1% collagenase (Roche) at 4 °C overnight. […] Single cell suspension was prepared by pipetting and draining through a cell strainer. After centrifugation, cell pellets were suspended in DMEM medium containing 10% charcoal-stripped fetal bovine serum (cFBS), mouse fibroblasts growth factor (FGF) and 1% antibiotic, and inoculated into tissue culture dishes (Midwest Scientific, TPP). Cells, in early passages, from different mice were pooled together to provide representative samples for experiments. Fibroblasts were cultured in Petri dishes (10 cm in diameter) in DMEM and 10% cFBS and triplicate semi-confluent cultures were treated as described.\nTriplicate cultures of murine fibroblasts were used for RNA isolation (RNAeasy Micro kit, Qiagen), the RNA samples were combined for each condition and at least 200 ng of RNA for each sample was used to create libraries for RNA sequencing by BGI Americas Corporation Service (Cambridge, MA)[67]. Quality of RNA and its concentration were determined using Agilent 2100.\nThe raw sequence FASTQ files were aligned to Gencode’s GRCm38 p4 Release M11 genome using STAR version 2.5.4b (parameters used: –outReadsUnmapped Fastx; –outSAMtype BAM SortedByCoordinate; –outSAMattributes All; –outFilterIntronMotifs RemoveNoncanonicalUnannotated)[69]. The abundance of transcripts was calculated from the alignments using Cufflinks version 2.2.1 (parameters used: –G; –L; –library-type fr-firststrand). Samples were merged using default parameters with Cuffmerge[70],[71]. The differential expression was calculated using Cuffdiff’s default parameters. The raw data have been deposited at the NCBI GEO (GSE145818).",
  "data": [
    {"smiles": "CC(C)CCC[C@](C)(O)[C@H]1CC[C@H]2[C@@H]3CC=C4C[C@@H](O)CC[C@]4(C)[C@H]3CC[C@@]21C", "note": "[20(OH)C, 20-hydroxycholesterol, reference compound]", "values": [
      {"measurement": "Adh7 expression level", "result": 0.7754},
      {"measurement": "Adh7 log2(fold_change) vs control", "result": 1.595},
      {"measurement": "Aqp11 expression level", "result": 0.8073},
      {"measurement": "Aqp11 log2(fold_change) vs control", "result": 1.853},
      {"measurement": "Arid3b expression level", "result": 0.9108},
      {"measurement": "Arid3b log2(fold_change) vs control", "result": -1.9},
      {"measurement": "Bicd1 expression level", "result": 0.39},
      {"measurement": "Bicd1 log2(fold_change) vs control", "result": -2.453},
      {"measurement": "Btc expression level", "result": 1.112},
      {"measurement": "Btc log2(fold_change) vs control", "result": 2.1992},
      {"measurement": "Car9 expression level", "result": 1.738},
      {"measurement": "Car9 log2(fold_change) vs control", "result": -2.435},
      {"measurement": "Cbs expression level", "result": 0.5333},
      {"measurement": "Cbs log2(fold_change) vs control", "result": -1.867},
      {"measurement": "Ccl4 expression level", "result": 0.1695},
      {"measurement": "Ccl4 log2(fold_change) vs control", "result": -2.322},
      {"measurement": "Cd68 expression level", "result": 2.992},
      {"measurement": "Cd68 log2(fold_change) vs control", "result": 1.391},
      {"measurement": "Cd200 expression level", "result": 0.446},
      {"measurement": "Cd200 log2(fold_change) vs control", "result": -1.664},
      {"measurement": "Cherp expression level", "result": 31.8463},
      {"measurement": "Cherp log2(fold_change) vs control", "result": -2.536},
      {"measurement": "Clec2g expression level", "result": 0},
      {"measurement": "Clec2g log2(fold_change) vs control", "result": "-inf"},
      {"measurement": "Cnnm4 expression level", "result": 3.864},
      {"measurement": "Cnnm4 log2(fold_change) vs control", "result": -3.699},
      {"measurement": "Cox15 expression level", "result": 14.0674},
      {"measurement": "Cox15 log2(fold_change) vs control", "result": 1.269},
      {"measurement": "Cpa2 expression level", "result": 0.3139},
      {"measurement": "Cpa2 log2(fold_change) vs control", "result": -2.322},
      {"measurement": "Ctrl expression level", "result": 0.4557},
      {"measurement": "Ctrl log2(fold_change) vs control", "result": -1.16},
      {"measurement": "Dcun1d1 expression level", "result": 3.938},
      {"measurement": "Dcun1d1 log2(fold_change) vs control", "result": -1.746},
      {"measurement": "Defb42 expression level", "result": 0.3618},
      {"measurement": "Defb42 log2(fold_change) vs control", "result": -1.335},
      {"measurement": "Dtx1 expression level", "result": 0.6172},
      {"measurement": "Dtx1 log2(fold_change) vs control", "result": -1.429},
      {"measurement": "Ehf expression level", "result": 0.3171},
      {"measurement": "Ehf log2(fold_change) vs control", "result": -1.391},
      {"measurement": "Ercc2 expression level", "result": 15.1049},
      {"measurement": "Ercc2 log2(fold_change) vs control", "result": -3.489},
      {"measurement": "Erh expression level", "result": 1.52},
      {"measurement": "Erh log2(fold_change) vs control", "result": -2.047},
      {"measurement": "Fmnl1 expression level", "result": 0.0589},
      {"measurement": "Fmnl1 log2(fold_change) vs control", "result": -3.9854},
      {"measurement": "Gys2 expression level", "result": 0},
      {"measurement": "Gys2 log2(fold_change) vs control", "result": "-inf"},
      {"measurement": "Hist1h2ab expression level", "result": 1.148},
      {"measurement": "Hist1h2ab log2(fold_change) vs control", "result": 2},
      {"measurement": "Hist1h2bg expression level", "result": 0.5658},
      {"measurement": "Hist1h2bg log2(fold_change) vs control", "result": -2},
      {"measurement": "Hist1h2bh expression level", "result": 0},
      {"measurement": "Hist1h2bh log2(fold_change) vs control", "result": "-inf"},
      {"measurement": "Hist1h4c expression level", "result": 0.4039},
      {"measurement": "Hist1h4c log2(fold_change) vs control", "result": -1},
      {"measurement": "Isl1 expression level", "result": 0.3429},
      {"measurement": "Isl1 log2(fold_change) vs control", "result": -1.227},
      {"measurement": "Krt19 expression level", "result": 12.2793},
      {"measurement": "Krt19 log2(fold_change) vs control", "result": 1.279},
      {"measurement": "Larp1b expression level", "result": 3.613},
      {"measurement": "Larp1b log2(fold_change) vs control", "result": -2.853},
      {"measurement": "Lhx6 expression level", "result": 2.203},
      {"measurement": "Lhx6 log2(fold_change) vs control", "result": -2.404},
      {"measurement": "Lsm5 expression level", "result": 0.8846},
      {"measurement": "Lsm5 log2(fold_change) vs control", "result": -1.59},
      {"measurement": "M1ap expression level", "result": 2.484},
      {"measurement": "M1ap log2(fold_change) vs control", "result": 2.0059},
      {"measurement": "Med9os expression level", "result": 0.3191},
      {"measurement": "Med9os log2(fold_change) vs control", "result": -2.7},
      {"measurement": "Nckipsd expression level", "result": 8.765},
      {"measurement": "Nckipsd log2(fold_change) vs control", "result": 1.073},
      {"measurement": "Nr3c2 expression level", "result": 0.1285},
      {"measurement": "Nr3c2 log2(fold_change) vs control", "result": -3.098},
      {"measurement": "Nr6a1 expression level", "result": 0.3735},
      {"measurement": "Nr6a1 log2(fold_change) vs control", "result": -2.304},
      {"measurement": "Ntrk3 expression level", "result": 0.3696},
      {"measurement": "Ntrk3 log2(fold_change) vs control", "result": -2.33},
      {"measurement": "Parvg expression level", "result": 0.09605},
      {"measurement": "Parvg log2(fold_change) vs control", "result": -3.946},
      {"measurement": "Pde4dip expression level", "result": 20.5427},
      {"measurement": "Pde4dip log2(fold_change) vs control", "result": -7.578},
      {"measurement": "Psd4 expression level", "result": 0.1792},
      {"measurement": "Psd4 log2(fold_change) vs control", "result": -3.129},
      {"measurement": "Ptpa expression level", "result": 149.828},
      {"measurement": "Ptpa log2(fold_change) vs control", "result": 1.1778},
      {"measurement": "Ptpn6 expression level", "result": 1.723},
      {"measurement": "Ptpn6 log2(fold_change) vs control", "result": -2.798},
      {"measurement": "Rnu3a expression level", "result": 0},
      {"measurement": "Rnu3a log2(fold_change) vs control", "result": "-inf"},
      {"measurement": "Rpph1 expression level", "result": 0.6576},
      {"measurement": "Rpph1 log2(fold_change) vs control", "result": -1},
      {"measurement": "Rsad1 expression level", "result": 1.413},
      {"measurement": "Rsad1 log2(fold_change) vs control", "result": -1.15},
      {"measurement": "Saa1 expression level", "result": 0.1908},
      {"measurement": "Saa1 log2(fold_change) vs control", "result": -2.322},
      {"measurement": "Samd12 expression level", "result": 0.5476},
      {"measurement": "Samd12 log2(fold_change) vs control", "result": -2.717},
      {"measurement": "Scn8a expression level", "result": 0.2978},
      {"measurement": "Scn8a log2(fold_change) vs control", "result": -1.43},
      {"measurement": "Sgca expression level", "result": 0.3806},
      {"measurement": "Sgca log2(fold_change) vs control", "result": -1.697},
      {"measurement": "Slc15a4 expression level", "result": 13.0176},
      {"measurement": "Slc15a4 log2(fold_change) vs control", "result": -2.132},
      {"measurement": "Slc16a5 expression level", "result": 0.4564},
      {"measurement": "Slc16a5 log2(fold_change) vs control", "result": -1.015},
      {"measurement": "Snhg9 expression level", "result": 7.471},
      {"measurement": "Snhg9 log2(fold_change) vs control", "result": -1.322},
      {"measurement": "St7 expression level", "result": 21.7063},
      {"measurement": "St7 log2(fold_change) vs control", "result": -1.667},
      {"measurement": "Stmn1 expression level", "result": 6.2905},
      {"measurement": "Stmn1 log2(fold_change) vs control", "result": 2.02},
      {"measurement": "Susd1 expression level", "result": 2.158},
      {"measurement": "Susd1 log2(fold_change) vs control", "result": 1.637},
      {"measurement": "Syt8 expression level", "result": 0.2562},
      {"measurement": "Syt8 log2(fold_change) vs control", "result": -3.638},
      {"measurement": "Syt12 expression level", "result": 1.318},
      {"measurement": "Syt12 log2(fold_change) vs control", "result": -1.636},
      {"measurement": "Tldc2 expression level", "result": 0},
      {"measurement": "Tldc2 log2(fold_change) vs control", "result": "-inf"},
      {"measurement": "Tnnc2 expression level", "result": 0.1558},
      {"measurement": "Tnnc2 log2(fold_change) vs control", "result": -2.361},
      {"measurement": "Unc5c expression level", "result": 0.4963},
      {"measurement": "Unc5c log2(fold_change) vs control", "result": -1.133},
      {"measurement": "Wdr17 expression level", "result": 0.677},
      {"measurement": "Wdr17 log2(fold_change) vs control", "result": -1.73},
      {"measurement": "Zbtb18 expression level", "result": 5.289},
      {"measurement": "Zbtb18 log2(fold_change) vs control", "result": -3.07},
      {"measurement": "Zfp618 expression level", "result": 2.236},
      {"measurement": "Zfp618 log2(fold_change) vs control", "result": -1.093},
      {"measurement": "number of genes downregulated, FC ≥ 2", "result": 498},
      {"measurement": "number of genes upregulated, FC ≥ 2", "result": 564},
      {"measurement": "number of genes solely downregulated", "setting": "FC ≥ 2", "result": "109 (10.3%)"},
      {"measurement": "number of genes solely upregulated", "setting": "FC ≥ 2", "result": "291 (19.4%)"}
    ]}
  ]
}
